Results as given in ChEMBL document CHEMBL1201862, “PubChem BioAssay data set” (2004).
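Method: 48-hour compound exposure of cells in 96-well plates, five concentrations, linear interpolation of endpoints. Abbreviation: GI50, concentration required for 50% inhibition of growth.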 Calls of active or inactive are those of the source. Cut-off read from the data, not from the text of the source: active = GI50 up to about 1.1 µM and inactive = higher.

Legend:
Assay in all cases: growth of human tumour cells (NCI), 48 h
786-0 = test system: 786-0
A498 = test system: A498
A549 = test system: A549
ACHN = test system: ACHN
HCT-15 = test system: HCT-15
HOP-62 = test system: HOP-62
HOP-92 = test system: HOP-92
LOX IMVI = test system: LOX IMVI
Malme-3M = test system: Malme-3M
NCI-H522 = test system: NCI-H522
OVCAR-4 = test system: OVCAR-4
OVCAR-8 = test system: OVCAR-8
SF-295 = test system: SF-295
SN12C = test system: SN12C
SNB-75 = test system: SNB-75
SR = test system: SR
SW-620 = test system: SW-620
T47D = test system: T47D
UACC-257 = test system: UACC-257
UACC-62 = test system: UACC-62

## C/C(=C\c1ccccc1)C(=O)NCc1ccc(C(=O)NCCc2ccccc2)cc1
786-0
  GI50: 20.6 µM (inactive)
A498
  GI50: > 66.5 µM (inactive)
A549
  GI50: > 100 µM (inactive)
ACHN
  GI50: > 94.6 µM (inactive)
HCT-15
  GI50: > 100 µM
HOP-62
  GI50: 3 µM (inactive)
HOP-92
  GI50: 18.4 µM (inactive)
LOX IMVI
  GI50: > 100 µM (inactive)
Malme-3M
  GI50: > 100 µM (inactive)
NCI-H522
  GI50: > 100 µM (inactive)
OVCAR-4
  GI50: > 100 µM (inactive)
OVCAR-8
  GI50: 3.47 µM (inactive)
SF-295
  GI50: 27.7 µM (inactive)
SN12C
  GI50: 21.2 µM (inactive)
SNB-75
  GI50: 3.95 µM (inactive)
SR
  GI50: > 100 µM (inactive)
SW-620
  GI50: > 100 µM (inactive)
T47D
  GI50: > 89.7 µM (inactive)
UACC-257
  GI50: > 100 µM (inactive)
UACC-62
  GI50: > 100 µM (inactive)

## CC1(C)CCC[C@@]2(C)C1CC[C@@]1(CO1)[C@@H]2/C=C\C(C=O)CC=O (some centres undefined)
786-0
  GI50: > 75.3 µM (inactive)
A498
  GI50: > 100 µM (inactive)
A549
  GI50: > 100 µM (inactive)
ACHN
  GI50: > 100 µM (inactive)
HCT-15
  GI50: 73.6 µM
HOP-62
  GI50: > 100 µM (inactive)
HOP-92
  GI50: > 100 µM (inactive)
LOX IMVI
  GI50: > 67.1 µM (inactive)
Malme-3M
  GI50: > 100 µM (inactive)
NCI-H522
  GI50: 42.4 µM (inactive)
OVCAR-4
  GI50: > 100 µM (inactive)
OVCAR-8
  GI50: > 100 µM (inactive)
SF-295
  GI50: > 100 µM (inactive)
SN12C
  GI50: > 68.1 µM (inactive)
SNB-75
  GI50: > 80.5 µM (inactive)
SR
  GI50: 37.6 µM (inactive)
SW-620
  GI50: 67.1 µM (inactive)
T47D
  GI50: 99.3 µM (inactive)
UACC-257
  GI50: > 100 µM (inactive)
UACC-62
  GI50: > 100 µM (inactive)

## OC1NC2Nc3ccccc3NC2NC1O (centres undefined)
786-0
  GI50: > 100 µM (inactive)
A498
  GI50: > 100 µM (inactive)
A549
  GI50: > 100 µM (inactive)
ACHN
  GI50: > 100 µM (inactive)
HCT-15
  GI50: > 100 µM
HOP-62
  GI50: > 100 µM (inactive)
HOP-92
  GI50: 30.8 µM (inactive)
LOX IMVI
  GI50: > 100 µM (inactive)
Malme-3M
  GI50: > 100 µM (inactive)
NCI-H522
  GI50: > 100 µM (inactive)
OVCAR-4
  GI50: > 100 µM (inactive)
OVCAR-8
  GI50: > 100 µM (inactive)
SF-295
  GI50: > 100 µM (inactive)
SN12C
  GI50: > 100 µM (inactive)
SNB-75
  GI50: > 100 µM (inactive)
SR
  GI50: > 100 µM (inactive)
SW-620
  GI50: > 100 µM (inactive)
T47D
  GI50: > 100 µM (inactive)
UACC-257
  GI50: > 100 µM (inactive)
UACC-62
  GI50: > 100 µM (inactive)

## Nc1ccc(C(=O)N/C(=C\c2cccc([N+](=O)[O-])c2)c2nc3c(O)nc(S)nc3[nH]2)cc1
786-0
  GI50: 24.5 µM (inactive)
A498
  GI50: 65.8 µM (inactive)
A549
  GI50: 74.3 µM (inactive)
ACHN
  GI50: > 76.2 µM (inactive)
HCT-15
  GI50: > 100 µM
HOP-62
  GI50: 17.2 µM (inactive)
HOP-92
  GI50: 20.9 µM (inactive)
LOX IMVI
  GI50: > 92.7 µM (inactive)
Malme-3M
  GI50: > 100 µM (inactive)
NCI-H522
  GI50: > 100 µM (inactive)
OVCAR-4
  GI50: > 100 µM (inactive)
OVCAR-8
  GI50: 31 µM (inactive)
SF-295
  GI50: 37.3 µM (inactive)
SN12C
  GI50: > 88.7 µM (inactive)
SNB-75
  GI50: 6.61 µM (inactive)
SR
  GI50: > 100 µM (inactive)
SW-620
  GI50: > 100 µM (inactive)
T47D
  GI50: 44.2 µM (inactive)
UACC-257
  GI50: > 100 µM (inactive)
UACC-62
  GI50: 41.9 µM (inactive)

## O=C(CNC(=O)OCc1ccccc1)NCCCCC(NC(=O)OCc1ccccc1)C(=O)O (centres undefined)
786-0
  GI50: > 100 µM (inactive)
A498
  GI50: > 100 µM (inactive)
A549
  GI50: > 100 µM (inactive)
ACHN
  GI50: > 100 µM (inactive)
HCT-15
  GI50: > 100 µM
HOP-62
  GI50: > 100 µM (inactive)
HOP-92
  GI50: > 100 µM (inactive)
LOX IMVI
  GI50: > 100 µM (inactive)
Malme-3M
  GI50: > 100 µM (inactive)
NCI-H522
  GI50: > 100 µM (inactive)
OVCAR-4
  GI50: > 100 µM (inactive)
OVCAR-8
  GI50: > 100 µM (inactive)
SF-295
  GI50: > 100 µM (inactive)
SN12C
  GI50: > 100 µM (inactive)
SNB-75
  GI50: > 100 µM (inactive)
SR
  GI50: > 100 µM (inactive)
SW-620
  GI50: > 100 µM (inactive)
T47D
  GI50: > 100 µM (inactive)
UACC-257
  GI50: > 100 µM (inactive)
UACC-62
  GI50: > 100 µM (inactive)

## Fc1c(F)c(C(F)(F)F)c(F)c(F)c1N/N=C\c1c[nH]c2ccccc12
786-0
  GI50: 3.44 µM (inactive)
A498
  GI50: 3.44 µM (inactive)
A549
  GI50: 3.16 µM (inactive)
ACHN
  GI50: 6.64 µM (inactive)
HCT-15
  GI50: 3.37 µM
HOP-62
  GI50: 1.55 µM (inactive)
HOP-92
  GI50: 3.61 µM (inactive)
LOX IMVI
  GI50: 3.3 µM (inactive)
Malme-3M
  GI50: 3.92 µM (inactive)
NCI-H522
  GI50: 1.74 µM (inactive)
OVCAR-4
  GI50: 2.44 µM (inactive)
OVCAR-8
  GI50: 6.43 µM (inactive)
SF-295
  GI50: 2.2 µM (inactive)
SN12C
  GI50: 3.13 µM (inactive)
SNB-75
  GI50: 1.27 µM (inactive)
SR
  GI50: 2.75 µM (inactive)
SW-620
  GI50: 3.37 µM (inactive)
T47D
  GI50: 2.4 µM (inactive)
UACC-257
  GI50: 3.52 µM (inactive)
UACC-62
  GI50: 2.44 µM (inactive)

## Cc1cccc(NC(=O)O/N=C(\Cl)C(C)C)c1
786-0
  GI50: 2 µM (inactive)
A498
  GI50: 18.5 µM (inactive)
A549
  GI50: 20.5 µM (inactive)
ACHN
  GI50: 2.02 µM (inactive)
HCT-15
  GI50: 2.25 µM
HOP-62
  GI50: 19 µM (inactive)
HOP-92
  GI50: 1.66 µM (inactive)
LOX IMVI
  GI50: 1.83 µM (inactive)
Malme-3M
  GI50: 2.19 µM (inactive)
NCI-H522
  GI50: 1.54 µM (inactive)
OVCAR-4
  GI50: 14 µM (inactive)
OVCAR-8
  GI50: 19.4 µM (inactive)
SF-295
  GI50: 17.5 µM (inactive)
SN12C
  GI50: 3.37 µM (inactive)
SNB-75
  GI50: 18.1 µM (inactive)
SR
  GI50: 1.38 µM (inactive)
SW-620
  GI50: 2.19 µM (inactive)
T47D
  GI50: 6.82 µM (inactive)
UACC-257
  GI50: 17.3 µM (inactive)
UACC-62
  GI50: 15.9 µM (inactive)

## Cc1ccc([S+]([O-])C[C@](NC(=O)OCc2ccccc2)(Sc2ccccc2)C(F)F)cc1 (some centres undefined)
786-0
  GI50: 13 µM (inactive)
A498
  GI50: 13.5 µM (inactive)
A549
  GI50: 28.6 µM (inactive)
ACHN
  GI50: 20.7 µM (inactive)
HCT-15
  GI50: 17.1 µM
HOP-62
  GI50: 35.8 µM (inactive)
HOP-92
  GI50: 17.8 µM (inactive)
LOX IMVI
  GI50: 4.16 µM (inactive)
Malme-3M
  GI50: 21.3 µM (inactive)
NCI-H522
  GI50: 7.13 µM (inactive)
OVCAR-4
  GI50: 13.2 µM (inactive)
OVCAR-8
  GI50: 19.1 µM (inactive)
SF-295
  GI50: 16.8 µM (inactive)
SNB-75
  GI50: 13.2 µM (inactive)
SR
  GI50: 10.8 µM (inactive)
SW-620
  GI50: 19.6 µM (inactive)
T47D
  GI50: 10.5 µM (inactive)
UACC-257
  GI50: 15 µM (inactive)
UACC-62
  GI50: 14.8 µM (inactive)

## C/C(=N\Nc1nc2ccccc2n1C)c1ccncn1
786-0
  GI50: 0.08 µM (active)
A498
  GI50: 0.14 µM (active)
A549
  GI50: 0.128 µM (active)
ACHN
  GI50: 0.0266 µM (active)
HCT-15
  GI50: < 0.0186 µM
HOP-62
  GI50: 5.38 µM (inactive)
HOP-92
  GI50: 0.129 µM (active)
LOX IMVI
  GI50: 0.0845 µM (active)
Malme-3M
  GI50: < 0.0385 µM (active)
NCI-H522
  GI50: 0.0393 µM (active)
OVCAR-4
  GI50: 0.17 µM (active)
OVCAR-8
  GI50: < 0.0238 µM (active)
SF-295
  GI50: 0.476 µM (active)
SN12C
  GI50: 0.0243 µM (active)
SNB-75
  GI50: 1.87 µM (inactive)
SR
  GI50: 0.082 µM (active)
SW-620
  GI50: < 0.018 µM (active)
T47D
  GI50: < 0.0501 µM (active)
UACC-257
  GI50: 0.0382 µM (active)
UACC-62
  GI50: 0.125 µM (active)

## COc1ccc(-c2cc(=O)c3ccc(O)cc3o2)cc1OC
786-0
  GI50: 56.9 µM (inactive)
A498
  GI50: 34 µM (inactive)
A549
  GI50: 38.5 µM (inactive)
ACHN
  GI50: 48.9 µM (inactive)
HCT-15
  GI50: 32.4 µM
HOP-62
  GI50: 25.5 µM (inactive)
HOP-92
  GI50: 56.6 µM (inactive)
LOX IMVI
  GI50: 33.5 µM (inactive)
Malme-3M
  GI50: 67.1 µM (inactive)
NCI-H522
  GI50: 16.6 µM (inactive)
OVCAR-4
  GI50: 24.7 µM (inactive)
OVCAR-8
  GI50: 37.4 µM (inactive)
SF-295
  GI50: 31.3 µM (inactive)
SN12C
  GI50: 41.3 µM (inactive)
SNB-75
  GI50: 10.2 µM (inactive)
SR
  GI50: 13 µM (inactive)
SW-620
  GI50: 37.8 µM (inactive)
T47D
  GI50: 25.9 µM (inactive)
UACC-257
  GI50: > 100 µM (inactive)
UACC-62
  GI50: 33.8 µM (inactive)
